{"source": "patent US12612412B2", "about": "“Antiviral heterocyclic compounds” (Enanta Pharmaceuticals, Inc., priority 2021, dated 2026)"}
{"tested_on": "genotype A, \"Long\" strain RSV", "assay": "RSV-A assay (CPE protection in Hep-2 cells, ATPlite readout)", "type": "cell-based, Human respiratory syncytial virus (HRSV)", "conditions": "human respiratory syncytial virus, genotype A “Long” strain RSV, MOI 0.1, CPE protection, read-out: Human RSV-A (“Long”)", "in_short": "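Protection from RSV-induced cytopathic effect measured by ATP content (ATPlite) after 5-day culture. Infection used genotype A Long virus at MOI 0.1 on 8,000 Hep-2 cells per well, with compound serially diluted 2-fold; values are EC50.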", "units": {"EC50": "nM"}}
{"smiles": "C[C@]1(C(N)=O)COc2c1cc([C@@](O)(CNC(=O)c1ccoc1)C(F)(F)F)nc2-c1ccc(F)cc1", "note": "[Example 363]", "EC50": "> 200"}
{"smiles": "C[C@]1(C(N)=O)COc2c1cc([C@@](O)(CNC(=O)c1ccno1)C(F)(F)F)nc2-c1ccc(F)cc1", "note": "[Example 364]", "EC50": "> 200"}
{"smiles": "C[C@]1(C(N)=O)COc2c1cc([C@@](O)(CNC(=O)c1cnc3[nH]cnc3c1)C(F)(F)F)nc2-c1ccc(F)cc1", "note": "[Example 365]", "EC50": "> 200"}
{"smiles": "C[C@]1(C(N)=O)COc2c1cc([C@@](O)(CNC(=O)c1cccc3cc[nH]c13)C(F)(F)F)nc2-c1ccc(F)cc1", "note": "[Example 366]", "EC50": "< 200"}
{"smiles": "C[C@]1(C(N)=O)COc2c1cc([C@@](O)(CNC(=O)c1cnc3ccc(F)cn13)C(F)(F)F)nc2-c1ccc(F)cc1", "note": "[Example 367]", "EC50": "> 200"}
{"smiles": "C[C@]1(C(N)=O)COc2c1cc([C@@](O)(CNC(=O)c1cc3ccccc3s1)C(F)(F)F)nc2-c1ccc(F)cc1", "note": "[Example 368]", "EC50": "> 200"}
{"smiles": "C[C@]1(C(N)=O)COc2c1cc([C@@](O)(CNC(=O)c1ccnc3[nH]ccc13)C(F)(F)F)nc2-c1ccc(F)cc1", "note": "[Example 369]", "EC50": "< 200"}
{"smiles": "C[C@]1(C(N)=O)COc2c1cc([C@@](O)(CNC(=O)c1cc3cnccc3[nH]1)C(F)(F)F)nc2-c1ccc(F)cc1", "note": "[Example 370]", "EC50": "< 200"}
{"smiles": "C[C@]1(C(N)=O)COc2c1cc([C@@](O)(CNC(=O)c1cc3ncccc3s1)C(F)(F)F)nc2-c1ccc(F)cc1", "note": "[Example 371]", "EC50": "> 200"}
{"smiles": "C[C@]1(C(N)=O)COc2c1cc([C@@](O)(CNC(=O)c1cc(=O)[nH]c(C3CC3)n1)C(F)(F)F)nc2-c1ccc(F)cc1", "note": "[Example 372]", "EC50": "> 200"}
{"smiles": "Cn1cc(C(=O)NC[C@](O)(c2cc3c(c(-c4ccc(F)cc4)n2)OC[C@]3(C)C(N)=O)C(F)(F)F)c2ccccc21", "note": "[Example 373]", "EC50": "> 200"}
{"smiles": "C[C@]1(C(N)=O)COc2c1cc([C@@](O)(CNC(=O)c1cnc3nccn3c1)C(F)(F)F)nc2-c1ccc(F)cc1", "note": "[Example 374]", "EC50": "> 200"}
{"smiles": "Cc1nc2cc(C(=O)NC[C@](O)(c3cc4c(c(-c5ccc(F)cc5)n3)OC[C@]4(C)C(N)=O)C(F)(F)F)ccc2o1", "note": "[Example 375]", "EC50": "> 200"}
{"smiles": "C[C@]1(C(N)=O)COc2c1cc([C@@](O)(CNC(=O)c1csc3ccccc13)C(F)(F)F)nc2-c1ccc(F)cc1", "note": "[Example 376]", "EC50": "> 200"}
{"smiles": "C[C@]1(C(N)=O)COc2c1cc([C@@](O)(CNC(=O)c1cc3cccnc3s1)C(F)(F)F)nc2-c1ccc(F)cc1", "note": "[Example 377]", "EC50": "> 200"}
{"smiles": "C[C@]1(C(N)=O)COc2c1cc([C@@](O)(CNC(=O)c1cc3ccccc3o1)C(F)(F)F)nc2-c1ccc(F)cc1", "note": "[Example 378]", "EC50": "> 200"}
{"smiles": "C[C@]1(C(N)=O)COc2c1cc([C@@](O)(CNC(=O)c1cc3cccc(F)c3s1)C(F)(F)F)nc2-c1ccc(F)cc1", "note": "[Example 379]", "EC50": "> 200"}
{"smiles": "C[C@]1(C(N)=O)COc2c1cc([C@@](O)(CNC(=O)c1cnc3[nH]ccc3c1)C(F)(F)F)nc2-c1ccc(F)cc1", "note": "[Example 380]", "EC50": "< 200"}
{"smiles": "Cc1cc(C(=O)NC[C@](O)(c2cc3c(c(-c4ccc(F)cc4)n2)OC[C@]3(C)C(N)=O)C(F)(F)F)no1", "note": "[Example 381]", "EC50": "> 200"}
{"smiles": "C[C@]1(C(N)=O)COc2c1cc([C@@](O)(CNC(=O)c1cccc3c1OCO3)C(F)(F)F)nc2-c1ccc(F)cc1", "note": "[Example 382]", "EC50": "> 200"}
{"smiles": "C[C@]1(C(N)=O)COc2c1cc([C@@](O)(CNC(=O)c1c[nH]c3cccnc13)C(F)(F)F)nc2-c1ccc(F)cc1", "note": "[Example 383]", "EC50": "> 200"}
{"smiles": "C[C@]1(C(N)=O)COc2c1cc([C@@](O)(CNC(=O)c1cc3cc[nH]c3cn1)C(F)(F)F)nc2-c1ccc(F)cc1", "note": "[Example 384]", "EC50": "> 200"}
{"smiles": "Cc1ccc2cc(C(=O)NC[C@](O)(c3cc4c(c(-c5ccc(F)cc5)n3)OC[C@]4(C)C(N)=O)C(F)(F)F)[nH]c2c1", "note": "[Example 385]", "EC50": "> 200"}
{"smiles": "Cc1ccsc1C(=O)NC[C@](O)(c1cc2c(c(-c3ccc(F)cc3)n1)OC[C@]2(C)C(N)=O)C(F)(F)F", "note": "[Example 386]", "EC50": "> 200"}
{"smiles": "C[C@]1(C(N)=O)COc2c1cc([C@@](O)(CNC(=O)c1cc3[nH]ccc3cc1F)C(F)(F)F)nc2-c1ccc(F)cc1", "note": "[Example 387]", "EC50": "> 200"}
